# Assays:
# mouse lung = assay: AAV vectors co-formulated with DS or DS/D2S, intranasal instillation; assay type: in vivo, C57Bl/6 mice
# Protocol: Cationic liposomes (DS/D2S) in a 1:1 mole ratio with DOPE (51 μg total lipid) were mixed with AAV (10^11 GC/dose) in equal volume at room temperature for 15 minutes prior to instillation. C57Bl/6 mice (6 to 8 weeks of age) were anesthetized by an i.p. injection of a 3:2 mixture of xylazil:ketamine. For dosing, mice were suspended from their dorsal incisors (hind quarters supported) and a dose of 10^11 GC of AAV vector was delivered as a 50 μl bolus into the nostrils.
# To evaluate luciferase transgene expression, 250 μl of a 15 mg/ml luciferin solution (Caliper Life Sciences, Hopkinton, Mass.) was injected per 25 gram body mass by i.p. injection. Five minutes after luciferin injection the mice were anesthetized by an i.p. injection of a 3:2 mixture of xylazil:ketamine. Animals were imaged 15 minutes after the original luciferin injection with a high sensitivity CCD Xenogen IVIS bioluminescent imaging system (Caliper Life Sciences).
# For lacZ transgene expression evaluation, lungs were harvested and inflated with a 1:1 mixture of PBS and OCT embedding compound. One lobe was then submerged in OCT, frozen in isopentane cooled with liquid nitrogen, and cryosectioned ([…]). Sections were fixed in 0.5% glutaraldehyde in PBS (Electron Microscopy Sciences, Hatfield, Pa.) for 10 minutes (4° C.) and then washed twice in PBS/1 mM MgCl2 (4° C.) and stained with X-gal substrate (5-bromo-4-chloro-3-indoyl-β-D-galactopyranoside) for 16 hours at 37° C. to reveal LacZ-positive cells. After being washed in PBS, sections were counterstained with nuclear fast red, dehydrated through a graded ethanol series and xylene, coverslipped, and imaged. The other lobe was placed in 2 ml of Lysis Buffer (Roche, Indianapolis, Ind.) and placed on ice. Directly after all samples were collected, each sample was homogenized for approximately 10 seconds. […] A mouse β-galactosidase enzyme-linked immunosorbent assay (ELISA) (Roche) was used on lung homogenates according to the manufacturer's instructions to quantitatively measure LacZ gene expression. […]
# physchem = conditions: water
# [1] = system: GRE promoter construct (pGRE-SEAP); assay: Induction of transcription from GRE (GRE-SEAP promoter construct) in 293 cells; assay type: cell-based
# Protocol: 293 cells were lipofected with GRE-SEAP plasmid in triplicate using 1 μg plasmid and 6 μg Lipofectamine per well in 24-well plates. […] After 24 hr of induction, 50 μl aliquots of growth media were analyzed for alkaline phosphatase activity using the SEAP fluorogenic assay following the manufacturer's instructions.
# [2] = Hyaluronic acid release assay (dialysis)
# Protocol: Hyaluronic acid sodium salt (Rooster Comb HA; Sigma) was diluted in PBS at 1 mg/ml to mimic an anionic glycosaminoglycan at a nominal interstitial concentration.
# osteoblasts = assay: In vitro bone culture inflammatory model, qRT-PCR transcripts; assay type: cell-based, murine; conditions: for reduction in IL-6 transcripts over control: qRT-PCR normalized to GAPDH; for OPG/RANKL ratio: transcripts, qRT-PCR
# Protocol: For co-cultures with osteoblasts, bone marrow cells (1×10^5 cells/well in 96-well plates) were co-cultured with calvarial osteoblasts (1×10^4 cells/well) in α-minimal essential medium containing 10% fetal bovine serum and supplemented with 20 nM 1α, 25(OH)2D3 and 1 μM prostaglandin E2 (PGE2) for 9 days. […] Co-cultures treated with Vitamin D3 (VitD3) were treated at 20 nM.
# For transcript analysis, total RNA was isolated using the Absolutely RNA microprep kit (Stratagene, La Jolla, Calif.). RNA was reverse transcribed using Superscript III reverse transcriptase and oligo(dT) (Invitrogen, Carlsbad, Calif.), and complementary DNA was purified using Qiagen's PCR purification kit (Valencia, Calif.). Complementary DNA from untreated samples was used for optimizing PCR conditions, with primers targeting the gene of interest. For the gene RANKL, the forward primer was 5′-[sequence]-3′ and the reverse primer was 5′-[sequence]-3′, for the OPG gene the forward primer was 5′-[sequence]-3′ and the reverse primer was 5′-[sequence]-3′, for the IL-6 gene the forward primer was 5′-[sequence]-3′ and the reverse primer was 5′-[sequence]-3′. In order to normalize the expression levels, GAPDH was used as a housekeeping gene with forward primer 5′-[sequence]-3′ and reverse primer 5′-[sequence]-3′. A standard curve was created using the untreated controls and the optimized PCR conditions for each set of primers on a Roche LightCycler 480 (Indianapolis, Ind.). Quantitative real-time PCR was performed using the LightCycler FastStart DNA MasterPLUS SYBR Green I kit with melting curve analysis provided by the LightCycler software.
# TNF-α is utilized as an inflammatory cytokine to initiate the NF-κB pathway and subsequent effect on RANKL.
# [3] = system: neutrophils in the i.p. space; assay: Thioglycollate (TG) model of inflammation; assay type: in vivo, BALB/c mice
# Protocol: Male, 6- to 8-week-old (20 g) BALB/c mice, six per group, were used. […] After 30 minutes, mice were injected i.p. with 1.5 mL of 3% TG in PBS containing 1% ethanol. At 4 hour post-TG, the i.p. fluid was collected and neutrophils were counted.
# [4] = system: bovine aortic endothelial cells; assay: Lipofection of BAEC with EGFP plasmid; assay type: cell-based; conditions: alone, unconjugated
# Protocol: Bovine aortic endothelial cells (BAEC, passage 4-13) were passaged at a 1:3 split to 24-well culture plates, and then grown to dense confluence before lipofection. Growth medium was Dulbecco's modified Eagle's medium (DMEM) containing 10% heat inactivated charcoal-filtered (to remove steroid hormones) fetal calf serum (Hyclone), 0.30 mg/ml glutamine, 150 U/ml penicillin, and 0.15 mg/ml streptomycin (Gibco). 293 cells were grown under identical conditions. The plasmids pEGFP-N3 and pGRE-SEAP (Clontech) were used for expression of EGFP or secreted alkaline phosphatase under the regulation of CMV or GRE promoters, respectively. […] In other experiments, Lipofectamine 2000 (Invitrogen), in a 1:1 (wt) ratio with nucleic acid, was used according to the manufacturer's instructions.
# For fluorescence microscopy and flow cytometry, pEGFP-N3 plasmid (Clontech, Palo Alto, Calif.) was used to generate GFP as the fluorescent reporter transgene protein. Cells were transfected in 6-well plates with each condition in duplicate. One day after GFP transfection, cells were imaged and then harvested in 500 ul PBS and kept on ice until analysis. A BD Biosciences (Franklin Lakes, N.J.) FACSCalibur flow cytometer was used to obtain fluorescence data with 50,000 counts recorded per condition.
# EGFP expression was calibrated using 0 to 200 ng recombinant GFP (Clontech) in 750 μl PBS. […]
# mouse lungs = assay: AdV vector formulated with lipid, intranasal delivery to mouse lungs; assay type: in vivo, C57Bl/6 mice; design: key: 0 (normal, no inflammation); mild (+) monocytic infiltrate and congestion; +++ (extensive inflammation); conditions: day 7
# Excerpt: E1/E3-deleted replication-deficient, recombinant adenovirus vectors (2-4.5×10^12 GC/ml stock) expressing either a LacZ or a AlkP reporter were created as previously described in Gao et al. (1996, J. Virol. 70:8934-8943) by homologous recombination between the shuttle plasmid that carries the transgene and the 5′ end of the adenovirus genome with E1 deleted and 3′ end of H5.sub360 in which the E3 gene was inactivated by a small deletion. The recombinant viruses were propagated in 293 cells and purified by the standard CsCl gradient sedimentation method. The replication-deficient AAV2/5CBntLacZ contains the LacZ gene with a nucleus localization sequence at its N-terminus, under the transcriptional control of the chicken h-actin promoter. The AAV (2/5) vector (˜2×10^12 GC/ml stock) was produced by transcapsidation in 293 cells using a triple transfection method and purified by CsCl gradient sedimentation as described in Gao et al. (2002, Proc. Natl. Acad. Sci. USA 99:11854-11859).
# C57Bl/6 mice (6 to 8 weeks of age) were anesthetized by an i.p. injection of a 3:2 mixture of xylazil (20 mg/ml):ketamine (100 mg/ml). For dosing, mice were suspended from their dorsal incisors (hind quarters supported) and a dose of 10^11 GC of AdV or AAV vector was delivered as a 50-μl bolus into the nostrils using a gel-loading tip (Finnpippette). […]
molecule,measurement,setting,value
"CC1C[C@H]2[C@@H]3CCC4=CC(=O)C=C[C@]4(C)[C@@]3(F)C(O)C[C@]2(C)[C@@]1(O)C(=O)CSCCCC(=N)NCCCNCCCCNCCCN.O=C(O)C(F)(F)F (stereo partly drawn) [DS, N-[3-({4-[(3-aminopropyl)amino]butyl}amino)propyl]-4-[(9-fluoro-11,17-dihydroxy-16-methyl-3,20-dioxopregna-1,4-dien-21-yl)sulfanyl]butanimidamide-TFA Salt]",lacZ transgene level in lung homogenate compared to control,"mouse lung; AAV2/6.2, ELISA, day 28",higher average transgene levels
same,luciferase luminescence in the lung,"mouse lung; AAV2/9, day 28",minimal luminescence in the lung
same,LacZ gene expression versus AAV2/9-LacZ alone (readministered control),"mouse lung; day 56, formulation at day 0, re-administration day 28",2 fold
same,solubility,physchem,> 100000 µg/mL
same,SEAP transcription from GRE promoter,"[1]; 100 nM, 293 cells",statistically significant levels of SEAP transcription
same,EC50,"[1]; Homo sapiens, HEK293, read-out: EC50 of transcription from GRE promoter construct (pGRE-SEAP)",0.01 to 0.1 µM
same,fraction eluted from HA,[2]; 24 hour period,only a small fraction
same,half-life for dissociation from HA,[2]; in PBS,56 h
same,time remaining tightly bound to HA,[2]; physiological salt buffer,over 24 hours
same,reduction in IL-6 transcripts over control,osteoblasts,17%
same,OPG/RANKL ratio,osteoblasts,1.67
same,reduction in neutrophil immigration versus vehicle,"[3]; 5.85 mg/kg i.p. 30 minutes before TG, 4 hour post-TG",60%
same,lethality,[3]; tested dose 5.85 mg/kg i.p.,not lethal
TNF-α,OPG/RANKL ratio,osteoblasts,0.12
"NCCCNCCCCNCCCN [Spermine, spermine]",gene transfer activity,[4],no detectable gene transfer activity
"C[C@@H]1C[C@H]2[C@@H]3CCC4=CC(=O)C=C[C@]4(C)[C@@]3(F)[C@@H](O)C[C@]2(C)[C@@]1(O)C(=O)CO [dexamethasone, reference compound]",solubility,physchem,100 µg/mL
same,reduction in IL-6 transcripts over control,osteoblasts,72%
same,lung inflammation score by blinded pathologist,mouse lungs,0
